System: HOS-FRα tumor-bearing mice
Assay: Toxicity and CRS rescue with sodium fluorescein
Assay type: in vivo
Settings: sodium fluorescein i.v. ~95 mg/kg, severe CRS, 35 million total CAR-T cells (93:7 CD4/CD8), plasma 6 h later
Protocol: Depending on the CAR-T cell dose and how EC17 is administered, tumor-bearing mice receiving FITC-specific CAR-T cells can experience severe CRS and varying degrees of body weight loss ([27], [33], [34]). Therefore, we developed a CRS grading system (0–5 scale) to empirically assess CRS toxicity from animals' gross morphology and social behavior to allow for better timing of CRS rescue. While grades 0 and 5 indicated normal (no CRS) or death (due to severe CRS), respectively, grades 1, 2, and 3–4 were considered mild, light-to-moderate, and severe CRS. In addition, all EC17 doses were intentionally given toward the end of any given day to allow potential CRS symptoms to develop overnight. On the days immediately following each EC17 dose, animals were scored and rescue agents such as sodium fluorescein, folic acid and leucovorin were used to mitigate CRS toxicity ([33]). In this particular instance, a batch of E2-CAR-T cells with a high EGFRt+ CD4/CD8 ratio (~93:7) was given to HOS-FRα tumor-bearing mice at a mixture of ~2.5 million CD8 and ~33 million CD4 on day 0. When EC17 was dosed, respectively, at 500, 100, and 500 nmol/kg on days 3, 10, and 12, low CRS (grades 1–2) was noted on days 4 and 11 but high CRS (grade 3) was noted on day 13. To mitigate the severe CRS toxicity, sodium fluorescein was intravenously administrated at ~96 mg/kg in the morning of day 13 and mouse plasma samples were collected 6 h later for analysis of CRS-associated cytokines.

In the case of `O=C([O-])c1ccccc1-c1c2ccc(=O)cc-2oc2cc([O-])ccc12.[Na+].[Na+]` [sodium fluorescein, reference compound], the “CAR-T cell derived human cytokines after CRS rescue” value was “acted very quickly to reduce CAR-T cell derived human cytokines”.
